We go through four molecules from ChEMBL document CHEMBL3526115, “Differences in the pharmacokinetics of 4-amino-3-chlorophenyl hydrogen sulfate, a metabolite of resatorvid, in rats and dogs” (Drug Metab Dispos, 2012).

Data set [1] is described as follows: Dissociation constant, pKa of the compound. Format: physicochemical.
The nature of data set [2]: Elimination half life in iv dosed dog plasma. Particulars: read-out: beta t1/2 (converted). Format: ADME, organism-based, Canis lupus familiaris.
Data set [3] in a line: Elimination half life in iv dosed rat plasma. Particulars: read-out: beta t1/2 (converted). Format: ADME, organism-based.
A short description of data set [4]: Half life in dog plasma at 5 mg/kg. Format: ADME, organism-based, Canis lupus familiaris. Details: dose 5 mg/kg.
Data set [5] can be described thus: Half life in human plasma at 5 mg/kg. Format: ADME, organism-based. Details: dose 5 mg/kg.
A short description of data set [6]: Half life in rat plasma at 5 mg/kg. Format: ADME, organism-based. Also on record: dose 5 mg/kg.

As for `Nc1ccc(OS(=O)(=O)O)cc1Cl`, the pKa in data set [1] came to 2.4.

Take `CCOC(=O)C1=CCCC[C@H]1S(=O)(=O)N[14c]1[14cH][14cH][14c](F)[14cH][14c]1Cl`: the values for the half-life in data set [2] and in data set [3] were 158 h and 5.6 h, respectively.

Regarding `O=C(O)COc1ccc(Cl)cc1Cl` [2,4-DICHLOROPHENOXYACETIC ACID], the values for the half-life in data set [4], in data set [5] and in data set [6] were 92 h, 12 h and less than 1 h, respectively.

Take `Cc1cc(Cl)ccc1OCC(=O)O` [METAXON]: the half-life is 63 h in data set [4], 11 h in data set [5] and 6 h in data set [6].
